Measurements published in PubChem BioAssay AID2137 (Broad Institute, 2009).
Values joined by “and” are separate entries in the source; they are usually repeats but may differ in a detail not shown here. Equal entries are not always repeated. Inconclusive results are not listed. Active and inactive are the calls of the source.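 Rule for the calls: active = IC50 at most ten times the top tested dose; inconclusive = flat fit with 30 to 70% activity, or an invalid poor fit; inactive = the rest.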

Biological target: S. pyogenes M1 GAS streptokinase expression, plasminogen activation OD405
Assay: S. pyogenes plasminogen activation signal decrease – absorbance readout, M1 GAS, streptokinase expression inhibitor project, dose response (AID 2137)

Row | Compound | IC50
1 | Cc1cc(C(=O)OC(C(=O)Nc2cccc(C(F)(F)F)c2)c2ccccc2)c(C)o1 (stereo not given) | 7.09 µM
2 | Cc1cc(C)c2nc(-c3ccncc3)cc(C(=O)N3CCN(Cc4ccccc4Cl)CC3)c2c1 | 9.54 µM
3 | CCN(CC)C(=S)SCC(=O)Nc1nc(-c2ccccc2)c(-c2ccccc2)o1 | 20.5 µM
4 | N#Cc1ccc(C(=O)n2c3ccccc3c3ccccc32)cc1 | 57.7 µM
5 | FC(F)(F)c1cc(-c2ccco2)nc(NCc2ccc(Cl)cc2)n1 | > 500 µM (inactive)
6 | CN1C(=O)/C(=C\c2cccn2-c2ccc3ccccc3c2)C(=O)NC1=S | 5.42 µM
7 | Cc1noc(C)c1CSc1nc2sc(C)c(C)c2c(=O)n1C1CCCC1 | 3.13 µM
8 | O=C(c1ccccc1C(F)(F)F)n1c2ccccc2c2ccccc21 | 6.62 µM
9 | Cc1ccc(/C=C/c2ccc(=O)n(Cc3ccccc3Cl)n2)cc1 | 14.2 µM
10 | COc1ccc(-c2csc3ncnc(N4CCN(c5ccccc5Cl)CC4)c23)cc1 | 6.67 µM
11 | Cn1c(=O)c2c(nc(SCc3ccccc3)n2Cc2ccc(Cl)cc2)n(C)c1=O | 5.9 µM
12 | COc1cccc(C(=O)n2c3ccccc3c3ccccc32)c1 | 13.7 µM
13 | O=C(c1ccc(Cl)cc1)n1c2ccccc2c2ccccc21 | 18.2 µM
14 | O=C(Nc1cc(S(=O)(=O)Nc2ccc(Cl)cc2)ccc1N1CCCCC1)c1ccc(F)cc1 | 4 µM
15 | COc1ccc(SCC(=O)N2c3ccccc3Sc3ccccc32)cc1 | 6.54 µM
16 | COc1ccc(Nc2ncnc3scc(-c4ccc(OC)cc4)c23)cc1 | 5.7 µM
17 | COc1ccc(-c2nc(-c3cccs3)c(-c3cccs3)[nH]2)cc1OC | 5.93 µM
18 | COc1ccc2oc(C(=O)N3CCN(C(c4ccccc4)c4ccccc4)CC3)c(C)c2c1 | 24.9 µM
19 | CC(=O)N(C)c1ccc(OCC(O)Cn2c3ccc(Cl)cc3c3cc(Cl)ccc32)cc1 (stereo not given) | 4.94 µM
20 | CC(C)c1ccc(NC(=O)c2cc(S(=O)(=O)NCC3COc4ccccc4O3)ccc2F)cc1 (stereo not given) | 3.65 µM
21 | Cc1ccc(C(=O)C(c2ccccc2)N2Cc3ccccc3C2=N)cc1 (stereo not given) | 8.38 µM
22 | FC(F)(F)c1cccc(-c2cc3ccccc3nc2N2CCCC2)c1 | 3.94 µM
23 | FC(F)(F)c1nc(N2CCN(c3ccccc3)CC2)nc2c1CCCCC2 | 1.73 µM
24 | CC1CCN(C(=O)N2c3ccccc3Sc3ccccc32)CC1 | 15 µM
25 | O=C(CSc1ccccc1)N1c2ccccc2Sc2ccccc21 | 9.11 µM

Row | Compound | IC50
26 | CC1CC(C)CN(c2ncc3c(n2)CC(c2ccccc2Cl)CC3=O)C1 (stereo not given) | 2.26 µM
27 | O=C(CSc1ccc(Cl)cc1)N1c2ccccc2Sc2ccccc21 | 3.1 µM
28 | COCc1cc(Sc2c(Cl)cccc2Cl)nc(-c2ccccc2)n1 | 7.59 µM
29 | Cc1ccc(C(=O)N2c3ccccc3Sc3ccccc32)cc1 | 46.5 µM
30 | COc1ccc(Sc2ccc(NC(=O)c3ccccc3Cl)cc2C#N)cc1 | 2.27 µM
31 | CCOC(=O)c1c(NC(=O)c2cccs2)sc(CC)c1-c1cccs1 | 21.8 µM
32 | O=C(CSc1ccncc1)N1c2ccccc2Sc2ccccc21 | 83.6 µM
33 | CC[C@@H](C)[C@H](NC(=O)OC(C)(C)C)c1nnc(S(=O)(=O)Cc2cc(C)ccc2C)o1 | 4.15 µM
34 | Cc1cc(C)c(NC(=O)c2oc3ccccc3c2COc2ccccc2)c(C)c1 | 98.8 µM
35 | C=CCn1c(SCC#N)nc2c(c1=O)C(C)(C)Cc1ccccc1-2 | 10.1 µM
36 | CCC1CCCCN1S(=O)(=O)c1ccc(NC(=O)c2nc(S(C)(=O)=O)ncc2Cl)cc1 (stereo not given) | 1.17 µM
37 | COC(=O)c1ccccc1NC(=O)c1nc(S(=O)(=O)Cc2ccccc2)ncc1Cl | 3.37 µM
38 | O=C(CSc1cccs1)N1c2ccccc2Sc2ccccc21 | 33.8 µM
39 | CC(C)(C)N/N=C1\CC(c2ccccc2)Oc2ccccc21 (stereo not given) | 7.95 µM
40 | CCCCn1c(=O)c(C(=O)NCc2ccccc2)c(O)c2ccccc21 | > 500 µM (inactive)
41 | O=C(CSc1nc(-c2ccc(Cl)cc2)[nH]c(=O)n1)Nc1cccc(Cl)c1 | 3.54 µM
42 | CN(C)c1ccc(C(=O)n2c3ccccc3c3ccccc32)cc1 | 4.09 µM
43 | Cc1ccc(C(=O)n2c3ccccc3c3ccccc32)cc1 | 2.89 µM
44 | O=C(NC(=S)Nc1ccccc1N1CCCC1)c1ccccc1Br | 23.6 µM
45 | CCCOc1ccc(-c2nc(OC)c3ccccc3n2)cc1 | 4.03 µM
46 | Cc1ccc(SCC(=O)N2c3ccccc3Sc3ccccc32)cc1 | 7.6 µM and 5.6 µM
47 | Cc1cc2oc(=O)cc(CN(C)Cc3ccccc3)c2cc1C(C)C | 9.18 µM
48 | O=C(c1ccc(F)cc1)n1c2ccccc2c2ccccc21 | 6.27 µM
49 | Clc1cccc(Cl)c1CSc1nnc(/C=C/c2ccccc2)o1 | 4.39 µM
50 | O=C(c1ccc(OC(F)(F)F)cc1)n1c2ccccc2c2ccccc21 | 6.36 µM
